Test system: muscarinic receptor
Assay: Test on salivary secretion in rat (oxotremorine-induced), compared with rhythmic bladder contraction test
Format: in vivo
Settings: anesthetized Wistar rat; ID50 = 50% inhibition of saliva, ED30 = 30% inhibition of bladder contraction
Protocol: a. Test on Rhythmic Bladder Contraction in Rat
A female Wistar rat (130-200 g) is subjected to urethane anesthesia (1.0 g/kg s.c.), followed by ligation of the ureter on the kidney side. A urethral catheter is allowed to remain in the bladder, and about 1.0 mL of physiological saline is injected into the bladder through the catheter to cause rhythmic bladder contraction. Intravesical pressure is measured by a pressure transducer. After rhythmic contraction continues stable for at least 5 minutes, the test compound is cumulatively administered from the external jugular vein. Five to ten minutes later, the intravesical pressure is measured. An inhibition ratio of bladder contraction is determined compared with the bladder contraction before administration of the test compound and the dose of the test compound required for 30% inhibition of the bladder contraction before administration is designated as ED30.
b. Test on Salivary Secretion in Rat
A male Wistar rat (160-190 g) is subjected to anesthesia with urethane (0.8 g/kg i.p.), and the test compound is administered (to the control group: solvent). Fifteen minutes later, 0.8 μmol/kg of oxotremorine is administered. In each case, the drug is administered through the femoral artery. The saliva secreted for 5 minutes after the administration of oxotremorine is collected and weighed. […]

Structure (SMILES): CN1[C@@H]2CC[C@H]1C[C@@H](OC(=O)C(CO)c1ccccc1)C2 (stereo partly shown) [atropine]
- ID50 value (salivary secretion) relative to ED30 value (rhythmic bladder contraction): substantially the same

From patent US11179393B2, “Methods of treating or preventing preterm labor” (priority 2014, dated 2021)
